# Measurements published in patent US20040022777A1, “Fragments and antagonists of heat shock protein 60” (priority 1999, published 2004).
# Ends that are not written are not given here.
# Assays:
# Type in all cases: cell-based, mouse
# [1] = tested on: bone marrow-derived macrophages of C3H/HeJ mice (mutant Toll-like receptor 4); assay: NO (nitrite) production by bone marrow-derived macrophages with mutant Tlr4 (Griess reaction); conditions: Tlr4 wild-type compared with Tlr4 defective macrophages; oligonucleotide 30 μg/ml; 24 h
# [2] = tested on: bone marrow-derived macrophages of C3H/HeJ mice (mutant Toll-like receptor 4); assay: TNFα production by bone marrow-derived macrophages with mutant Tlr4 (sandwich ELISA); conditions: C3H/HeJ macrophages; LPS 10 ng/ml, hsp60 10 μg/ml, oligonucleotides 30 μg/ml; 6 h
# [3] = tested on: hsp60 induced TNFα and Nitric oxide (NO) secretion in J774 cells; assay: Screening of 10-mer peptides for inhibition of hsp60 induced (and CpG induced) TNFα secretion; conditions: crude peptides at a dilution of 1:10
# Procedure: The crude peptides were re-suspended in 500 μl water and tested at a dilution of 1:10, for inhibition of hsp60 induced TNFα and Nitric oxide (NO) secretion in J774 cells (as described in example no. 1 of the application). Selected peptides were tested (in an equivalent assay) also for inhibition of CpG induced TNFα secretion. CpG is a non-specific immunostimulatory oligonucleotide motif with the sequence: […]. CpG DNA: a novel immunomodulator Trends Microbiol 1999; 7:64-5). CpG stimulates J774 cells to produce TNFα in a mechanism different to that used by hsp60 and thus serves as a negative control for non-selective inhibition of TNF secretion (which is not mediated through specific inhibition of hsp60). […] The peptides in this chart were selected for re-screening based on the activity found in screening all the 192 peptides synthesized. The results are presented as percent inhibition of TNF-secretion in response to induction with hsp60 or CpG, and are the average of two repeats.
# [4] = tested on: bone marrow-derived macrophages of C57BL/6 and C3H/HeN mice; assay: NO (nitrite) production by bone marrow-derived macrophages with wild-type Tlr4 (Griess reaction); conditions: C57BL/6 and C3H/HeN macrophages; LPS 10 ng/ml, hsp60 10 μg/ml; 24 h
# [5] = tested on: bone marrow-derived macrophages of C57BL/6 and C3H/HeN mice; assay: TNFα production by bone marrow-derived macrophages with wild-type Tlr4 (sandwich ELISA); conditions: C57BL/6 and C3H/HeN macrophages; LPS 10 ng/ml, hsp60 10 μg/ml; 6 h
Substance,NO response / NO formation in the two macrophage types [1],TNFα response [2],"inhibition of hsp60 induced TNFα secretion, activity and specificity versus CpG induced TNFα secretion [3]",NO production [4],TNFα secretion [5]
"5′-ACCGATAACGTTGCCGGTGACG-3′ (DNA ACCGATAACGTTGCCGGTGACG; chemistry not given here) [Pal+, immunostimulatory oligonucleotide containing a CpG motif]",failed to induce NO formation,less stimulatory,,,
"5′-TCCATGACGTTCCTGATGCT-3′ (DNA TCCATGACGTTCCTGATGCT; chemistry not given here) [ODN1668, immunostimulatory oligonucleotide containing a CpG motif]",very similar NO response,strong TNFα response,,,
"5′-TCCATGAGCTTCCTGATGCT -3′ (DNA TCCATGAGCTTCCTGATGCT; chemistry not given here) [ODN1720, non-stimulatory oligonucleotide lacking a CpG motif]",failed to induce NO formation,did not provoke a response,,,
KVGGTSDVEV [Peptide No. 175],,,hsp60-inhibiting,,
"Lipopolysaccharide [LPS, reference compound]",,no response,,responded,rapid secretion of large amounts of TNFα
VLKVGGTSDV [Peptide No. 173],,,hsp60-inhibiting,,
